Series [1] deals with T1, CYP3A4 (Homo sapiens, UniProt P08684). More on the design: purchased Thermo Fisher Scientific (Waltham, MA, USA); host or cells: baculosomes (baculovirus-infected insect cell microsomes). The conditions noted are these: cited from earlier work; for inhibition of CYP3A4: 1 µM concentration, testosterone as marker substrate; for IC50 / Ki / kinact / kinact/Ki: testosterone (TSN) as marker substrate.

The conditions of series [2]: combination treatment of apigenin and paclitaxel in vivo; cited from earlier work.
Series [3] addresses T1, CYP3A4. Kind of series: CYP3A4 inhibition and inactivation kinetics, nifedipine oxidation as marker reaction. The method, then:
Enzyme incubations were performed in triplicate, with mechanical stirring in a water bath at 37 °C. Aliquots of flavonoids with a final concentration of 1 μM were dissolved in methanol, transferred to glass tubes, and evaporated to dryness, except in control samples without the inhibitor (flavonoid). After the evaporation of the solvent, an incubation mixture was prepared to a volume of 100 μL, consisting of 5 pmol CYP3A4 enzyme, 50 mM potassium phosphate buffer (pH 7.4), and ultrapure water. An NADPH generating system composed of 0.1 M G6P: 10 mg/mL NADP^+: 1000 IU/mL G6PDH = 50:25:1 (v/v/v) was prepared immediately before use. This generating system contains glucose-6-phosphate dehydrogenase that regenerates NADP^+ into NADPH, keeping the concentration of the cytochrome P450 coenzyme (NADPH) constant in the incubation. The addition of the generating system (15% of the volume in the final incubation, v/v) started the reaction. Nifedipine was used to test out the residual enzyme activity at a final concentration of 200 μM. The reaction was stopped using 1 mL of ice-cold 1% solution of formic acid in dichloromethane. The samples were mixed, then centrifuged for 10 min on 1900g (Rotofix 32, Westfalia, Germany). After centrifugation, two layers were formed (water and organic layer). 850 µL of the organic layer was transferred to cuvettes and evaporated. The analyte was then dissolved in 30 µL of methanol. An Agilent Zorbax SB C18 column (4.6 × 250 mm, 3 μm, Agilent Technologies, Santa Clara, CA, USA) was used to analyze the samples by HPLC. The mobile phase was composed of methanol and water in a ratio of 64:36. The analysis was isocratic. The flow was set at 1.0 mL min^−1. The injection volume was set at 10 µL. Nifedipine was used as a marker substrate. The reaction observed was the oxidation of nifedipine. Chromatograms were recorded at 254 nm. The duration of the analysis was set at 25 min. The retention time of nifedipine is 7.1 min and that of oxidized nifedipine is 10.8 min [42]. […] For all the flavonoids, half maximal inhibitory concentration (IC50), constant of inhibition (Ki), constant of inactivation speed (kinact), and inactivation efficacy (kinact/Ki) were determined.
A one-sided t-test would be used to assess the statistical significance in the differences between samples and controls, based on measurements of residual activity. A nonlinear equation was used to calculate the IC50 value. The Michaelis-Menten equation was used to determine the inactivation constant and the inactivation rate of the inhibitor. Statistical processing and graph preparations were done using Program R (The R Project for Statistical Computing, Vienna, Austria) and Microsoft Excel (Microsoft, Redmond, WA, USA).

Details of series [4]: method as in PMID 7937537. The conditions noted are these: healthy volunteers; cited from earlier work.
On the set-up of series [5]: method as in PMID 17093006. The following applies: rats, chrysin 20–100 µM; cited from earlier work.
For series [6], the target named is T1, CYP3A4. The experiment in a line: Pseudo-irreversible inhibition assay (incubation, dialysis with or without potassium hexacyanoferrate, testosterone marker). It counts as biochemical. The arrangement: purchased Thermo Fisher Scientific (Waltham, MA, USA); host or cells: baculosomes (baculovirus-infected insect cell microsomes). The conditions noted are these: after incubation and dialysis (Figure 4). The method, then:
The aim of this assay is to test out the formation of covalent complexes with ferrous iron (Fe^2+), by assessing a recovery of enzyme activity after dialysis with or without the addition of an oxidant. Three types of experiments were performed for each flavonoid: incubation mixture without flavonoids (control), incubation mixture with flavonoid, and incubation mixture with flavonoid to which oxidant was added after incubation. Each incubation with the inhibitor was performed for 30 min using the same experimental settings as described above (Section 4.2.1). After incubation, the samples were transferred to dialysis cartridges. Aa oxidant—20 mM solution of potassium hexacyanoferrate was added to one of the incubations before dialysis. The cassettes (Slide-A-Lyzer Dialysis Cassettes, Thermo Fisher Scientific, Waltham, MA, USA) were immersed in 50 mM potassium phosphate buffer solution (pH 7.4) for 30 min (dialysis solution was exchanged three times). After dialysis, the samples were transferred from the cassette back to the glass tube, and the residual enzyme activity was assessed using testosterone as a marker substrate (200 μM final concentration). As the NADPH generating system was also dialyzed, it was again added to the incubations to initiate enzyme reaction. […] The samples were analyzed by HPLC.

Where [7] appears, read: human, CYP3A4 enzyme, pH 7.4, probe nifedipine (200 µM), nifedipine oxidation.
Setting [8] is: human, CYP3A4 enzyme, pH 7.4, probe nifedipine (200 µM), nifedipine oxidation, kinact/Ki (inactivation efficiency), nifedipine (NIF) as marker substrate, ratio of inactivation rate constant and inhibition constant.
Setting [9] is: nifedipine (NIF) as marker substrate, ratio of inactivation rate constant and inhibition constant.

This is an account of results in publication PMC8158701, “Characterization of the CYP3A4 Enzyme Inhibition Potential of Selected Flavonoids” (Molecules, 2021).

Where two headings read alike, the source gives them in different places.

T1 sequence (P08684 whole entry): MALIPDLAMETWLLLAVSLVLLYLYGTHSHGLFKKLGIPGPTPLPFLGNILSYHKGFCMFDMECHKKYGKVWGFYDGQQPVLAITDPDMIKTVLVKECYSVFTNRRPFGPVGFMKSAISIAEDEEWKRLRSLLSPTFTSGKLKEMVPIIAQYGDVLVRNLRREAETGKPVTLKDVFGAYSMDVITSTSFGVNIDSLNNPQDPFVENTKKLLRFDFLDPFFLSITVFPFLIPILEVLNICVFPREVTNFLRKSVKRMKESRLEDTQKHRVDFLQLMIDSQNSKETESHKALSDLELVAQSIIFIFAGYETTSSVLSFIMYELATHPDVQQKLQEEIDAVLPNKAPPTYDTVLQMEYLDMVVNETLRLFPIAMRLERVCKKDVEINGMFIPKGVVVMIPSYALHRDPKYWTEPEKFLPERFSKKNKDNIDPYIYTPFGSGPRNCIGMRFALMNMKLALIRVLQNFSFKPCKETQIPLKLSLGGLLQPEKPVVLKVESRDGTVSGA

As to `O=c1cc(-c2ccc(O)cc2)oc2cc(O)cc(O)c12` [apigenin], on CYP3A4 [1], the “inhibition of CYP3A4” value is “statistically significant inhibition”. For the same molecule, in series [2], the “oral bioavailability of paclitaxel” value is “increase in oral bioavailability of paclitaxel”.

`O=C1CC(c2ccccc2)Oc2cc(O)cc(O)c21` (centres unmarked) [pinocembrin, 5,7-dihydroxy-flavanone]: at CYP3A4 [1], the “inhibition of CYP3A4” value is listed as “statistically significant inhibition”, the half-inhibitory concentration (IC50) is 5 ± 0.6 µM, the Ki was 1.2 ± 0.3 µM and the kinact is 0.018 ± 0.001 min⁻¹. Also, at CYP3A4 [1], the kinact/Ki is 250 M⁻¹ s⁻¹. In addition, at CYP3A4 [3], inhibition was half-maximal at 4.3 ± 1.1 µM (IC50) and the Ki turned out to be 5.1 ± 1.6 µM. Further, the kinact at CYP3A4 [3] (setting [7]) was 0.000667 s⁻¹. Moreover, the kinact/KI at CYP3A4 [3] (setting [8]) was about 167 M⁻¹ s⁻¹. Further, the “kinact/Ki (inactivation efficiency)” value on CYP3A4 [3] (setting [9]) was 130 M⁻¹ s⁻¹.

In the case of `CC[C@H]1OC(=O)[C@H](C)[C@@H](O[C@H]2C[C@@](C)(OC)[C@@H](O)[C@H](C)O2)[C@H](C)[C@@H](O[C@@H]2O[C@H](C)C[C@H](N(C)C)[C@H]2O)[C@](C)(O)C[C@@H](C)C(=O)[C@H](C)[C@@H](O)[C@]1(C)O` [erythromycin], the “increase in AUC of cerivastatin” value in series [4] is on record as 21%.

Turning to `O=c1cc(-c2ccccc2)oc2cc(O)cc(O)c12` [chrysin, 5,7-dihydroxy-flavone], the “AUC and peak serum concentration (Cmax) of nitrofurantoin” value in series [5] is listed as “significantly increased”. For the same molecule, the “reduction of enzyme activity” value on CYP3A4 [6] is recorded as “approximately 99%”. In addition, at CYP3A4 [1], the “inhibition of CYP3A4” value was “statistically significant inhibition”, the IC50 is 0.6 ± 0.5 µM, the Ki is 0.6 ± 0.3 µM and the kinact was 0.065 ± 0.005 min⁻¹. The kinact/Ki at CYP3A4 [1] is 1800 M⁻¹ s⁻¹. On CYP3A4 [3], this molecule showed an IC50 of 2.5 ± 0.6 µM and a Ki of 2.4 ± 1 µM. On CYP3A4 [3] (human, pH 7.4), the kinact was 0.00117 s⁻¹ and the “kinact/Ki (inactivation efficiency)” value worked out at 483 M⁻¹ s⁻¹. At CYP3A4 [3] (human, pH 7.4, kinact/Ki (inactivation efficiency)), the kinact/KI is 500 M⁻¹ s⁻¹.

As to `COc1ccc(-c2cc(=O)c3c(O)cc(O)cc3o2)cc1` [acacetin], at CYP3A4 [1], the “inhibition of CYP3A4” value was “statistically significant inhibition”, the IC50 was 10.9 ± 0.3 µM, the Ki is 6 ± 3 µM and the kinact is 0.036 ± 0.006 min⁻¹. The kinact/Ki at CYP3A4 [1] was 100 M⁻¹ s⁻¹. On CYP3A4 [3], the IC50 was determined as 7.5 ± 2.7 µM and the Ki came out at 12.1 ± 5.6 µM. Also, the inactivation rate constant (kinact) at CYP3A4 [3] (setting [7]) is 0.00167 s⁻¹. Besides, the kinact/KI at CYP3A4 [3] (setting [8]) is about 167 M⁻¹ s⁻¹. Further, the “kinact/Ki (inactivation efficiency)” value at CYP3A4 [3] (setting [9]) came out at 130 M⁻¹ s⁻¹.
